Legend:
[1] = tested on: rice; test: Synthetic triacontanol on rice in nutrient cultures (Example III); type: in vivo; conditions: for Dry wt / Water Uptake: seven days
Experimental: Synthetic triacontanol in aqueous solution was applied to rice (4 replicates) in nutrient cultures and to "Chico III" tomatoes (6 replicates) grown in soil as previously described. The response of both rice and tomatoes to synthetic triacontanol after seven and six days respectively was similar to that of the natural triacontanol with the optimum rate at between 0.01 and 0.1 mg per liter, as summarized in the following table III:
^1 Treatments applied on filter paper, including control and placed i
nutrient solution. The solution was changed after 4 days. Seedlings
weighed 57 mg at initiation of test.

[2] = tested on: IR-8 rice seedlings; test: Growth analysis (NAR, RGR, LAR) of IR-8 rice seedlings (Example V); type: in vivo
Experimental: (§1) Rice seed cv. IR-8, or Starbonnet was surface treated with 0.1 percent mercuric chloride and planted in 77 cc plastic cups containing vermiculite and watered with one-fourth Hoagland's nutrient solution containing 3 mM of nitrogen at pH 5.0. After 10 days, seedlings were transplanted to 220 cc specimen cups wrapped in aluminum foil and containing 180 cc of the same Hoagland's nutrient solution. Four seedlings were suspended in the solution with a sponge rubber disc. The plants were grown under a 8 h night at 25° C. and a 16 h day at 30° C. with 21 and 8 μwatts per cm^2 in the blue and red spectra respectively. In the test with varying light intensity the high light intensity was 30 13 and the low intensity was 15 and 8 μwatts per cm^2 for the blue and red spectra respectively. The nutrient solution was renewed every 2 or 3 days. After one week the plants were sorted for size and similar sized plants assigned to the same block for the experiment. Prior to the initiation of a test the plants in each cup were assigned treatment numbers by use of a random number table. […] Sixteen hours prior to a test the foil wrapped cups were tared, and filled with one-half Hoaglands solution containing 6 mM nitrogen. Eighteen μl of chloroform or chloroform containing 1.8 μg triacontanol were placed on 2 cm^2 of Whatman No. 1 filter papers, air dried and placed in the specimen cups. This concentration of 10 μg triacontanol/liter was used for all tests described in the following Examples except where specifically indicated to the contrary. Immediately prior to the test the cups were all brought up to 180 ml. including a set of cups without plants to measure evaporation.
The plants were disected at harvest into shoots and roots. The expanded leaves were cut at the ligule and the newest leaf at the point it entered the sheath. The surface area of expanded leaves were measured using a Lambda Model LI-3000 planimeter. The plants were dried to constant weight in an oven at 100° C. and the roots, expanded leaves, and sheaths were weighed separately.
Growth analysis was conducted according to Evans (1972). The Net Assimulation Rate (NAR) is the increase in plant weight per unit of leaf area over time interval where: W=total weight per plant in mg, T=time in days, and L=leaf area in cm^2. [formula]
The relative growth rate (RGR) is the increase in plant weight per unit of original weight over a time interval and is obtained by: [formula]
The leaf area ratio is the ratio of leaf area to […] over a time interval. [formula]
IR-8 rice seedlings were grown as above explained and were tested at 8 hour, 24 hour, 72 hour, and 216 hour intervals. Control (no treatment) plants are indicated by "0" and triacontanol treated plants are indicated by "+" in Table V. The Net Assimulation Rate (NAR), the Relative Growth Rate (RGR) and the Lead Area Ratio (LAR) was determined for each plant at each interval.

[3] = tested on: IR-8 rice seedlings; test: Total protein content of rice seedlings grown in the dark for six hours (Example VIII); type: in vivo
Experimental: as §1
Plants were placed in 20×32 cm glass jars fitted with gas inlet and outlet ports. Three jars containing 2 cups each were used for a total of 24 plants for each treatment. The plants were ventilated with air or freed of CO2 by passing it through ascarite and then humidified. The flow rate was approximately 300 ml/minute. […]
The total protein (nitrogen) content of 17 day old "IR-8" rice seedlings was determined, where […]

[4] = tested on: IR-8 rice seedlings; test: Percent change in dry weight of rice seedlings in the dark (Example XVIII); type: in vivo; conditions: 0.01 mg/l
Experimental: as §1
This example was run to determine the percent change in dry weight of whole 15-day-old "IR-8" rice seedlings treated with triacontanol in the dark as compared with a control. The dry weight at zero time was 37.3 mg per seedling. […]

[5] = tested on: tobacco callus; test: Growth of tobacco callus, triacontanol and octocosanol (Example XIX, FIG. 6); type: cell-based, Nicotiana tabacum, var. Wisconsin 38; conditions: 10 days; for growth over the control: four concentrations
Experimental: Cell cultures were separately grown in disposable petri dishes.
1. Haploid tobacco (Nicotiana tabacum, var. Wisconsin 38)
The cultures were grown on the basic medium of mineral salts described by Linsmaier and Skoog (Physiol. Plant, […] (1965)). Vitamins and hormones varied for each tissue (Table X-1) to maintain the tissues in an undifferentiated state. For all of the tissues inositol was 100 mg/liter and agar 1%. Sucrose was 3% for all but the bean which was 2%.
Callus was produced from pith for tobacco, potato and tomato. Bean callus was produced from hypocotyl sections and barley callus from immature ovarian tissue. Subcultures were maintained on the appropriate media.
Stock solutions of triacontanol were prepared at a concentration of 100 μg/ml. The solvent used was glass distilled benzene. The lower concentrations were obtained by serial dilutions. Treatments were applied to 4.5 cm Whatman #1 filter paper disks in 100 μl aliquots. Controls received 100 μl of glass distilled benzene. The solvent was evaporated for approximately 15 minutes and the filter papers were then placed on the agar medium.
Callus tissue was then broken into pieces of approximately the same size (10 mg) and placed in the petri dishes on the treated filter paper (one piece per dish). For experiments conducted in the light the intensity was approximately 2.0 microwatts/cm^2 -namometer. Fresh weight measurements were made after 12 days of growth.
A stock solution of octocosanol (CH3 (CH2)26 CH2 OH was prepared in the same manner as the triacontanol solutions above described.
The effect of four concentrations of triacontanol and octocosanol on tobacco callus was determined, using the materials and procedures above described in this Example. The dishes were tared and weighed at the end of 10 days. The results are illustrated in FIG. 6 of the drawings.

[6] = tested on: oat first-internode; conditions: published reports; cited from earlier work

## CCCCCCCCCCCCCCCCCCCCCCCCCCCCCCO [Triacontanol, 1-triacontanol]
[1]; 0.001 mg/liter
  Dry wt: 103 mg/plant
  Water Uptake: 37.0 g/plant
[1]; 0.010 mg/liter
  Dry wt: 107 mg/plant
  Water Uptake: 38.8 g/plant
[1]; 0.100 mg/liter
  Dry wt: 106 mg/plant
  Water Uptake: 39.0 g/plant
[1]; 1.000 mg/liter
  Dry wt: 91 mg/plant
  Water Uptake: 33.4 g/plant
[1]; Oryza sativa, soil, rice seedlings, nutrient cultures
  minimal effective concentration: ≥ 0.001 µg/mL
[2]; 0-8 hours
  LAR (Leaf Area Ratio): 0.16
  NAR (Net Assimulation Rate): 3.39 mg plant wt per cm^2 per day
  RGR (Relative Growth Rate): 0.52 mg dry weight per mg original
[2]; 9-24 hours
  LAR (Leaf Area Ratio): 0.15
  NAR (Net Assimulation Rate): 0.90 mg plant wt per cm^2 per day
  RGR (Relative Growth Rate): 0.14 mg dry weight per mg original
[2]; 25-72 hours
  LAR (Leaf Area Ratio): 0.16
  NAR (Net Assimulation Rate): 1.03 mg plant wt per cm^2 per day
  RGR (Relative Growth Rate): 0.17 mg dry weight per mg original
[2]; 73-216 hours
  LAR (Leaf Area Ratio): 0.13
  NAR (Net Assimulation Rate): 1.15 mg plant wt per cm^2 per day
  RGR (Relative Growth Rate): 0.15 mg dry weight per mg original
[2]; first 8 hour and subsequent 16 hour period
  net assimilation (NAR) greater than control plants: 37%
[3]
  higher concentration of total protein in 4th leaf than the control: 11%
  total increase in protein per plant versus zero time: 18%
  total protein per (4th) leaf: doubling
[4]; 1 hour
  Dry Weight (percent change): 4%
[4]; 3 hours
  Dry Weight (percent change): 6%
[4]; 6 hours
  Dry Weight (percent change): 10%
[5]
  optimum concentration for growth: 0.1 μg per dish
[5]; listed as 1-triacontanol
  growth over the control: significant increases in growth
[5]; listed as triacontanol
  growth over the control: significant increases in growth over the control
[6]
  growth, oat first-internode method: not active

From patent US4150970A, “Growth regulator for plants” (Board of Trustees of Michigan State University, priority 1977, dated 1979)
